Key:
Carbonic anhydrase [1] = biological target: T1, Carbonic anhydrase (Methanosarcina thermophila, UniProt P40881)
T1 sequence (P40881 whole entry): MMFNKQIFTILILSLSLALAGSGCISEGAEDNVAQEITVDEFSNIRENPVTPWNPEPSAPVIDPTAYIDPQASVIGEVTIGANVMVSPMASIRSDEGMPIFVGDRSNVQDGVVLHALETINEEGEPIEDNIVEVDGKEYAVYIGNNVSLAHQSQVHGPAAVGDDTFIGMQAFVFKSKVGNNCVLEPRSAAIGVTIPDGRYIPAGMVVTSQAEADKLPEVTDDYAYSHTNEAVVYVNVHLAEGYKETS

Carbonic anhydrase [2] = biological target: T1, Carbonic anhydrase; remark: listed apart in the source
Carbonic anhydrase [3] = biological target: T2, Carbonic anhydrase (Methanobacterium thermoautotrophicum, UniProt Q50565)
T2 sequence (Q50565 whole entry): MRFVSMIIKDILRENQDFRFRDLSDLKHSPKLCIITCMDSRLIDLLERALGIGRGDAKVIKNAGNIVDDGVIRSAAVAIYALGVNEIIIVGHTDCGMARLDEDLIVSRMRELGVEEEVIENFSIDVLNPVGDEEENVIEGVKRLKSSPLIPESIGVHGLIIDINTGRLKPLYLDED

Structure (SMILES)	Ki (Carbonic anhydrase [1])	Ki (Carbonic anhydrase [2])	Ki (Carbonic anhydrase [3])
Nc1ccc(S(N)(=O)=O)cc1Br	1.72 µM	0.28 µM	77 µM
NCCc1ccc(S(N)(=O)=O)cc1			25.7 µM
Nc1cccc(S(N)(=O)=O)c1	0.17 µM	1.24 µM	14.3 µM
Cc1ccc(-c2cc(C(F)(F)F)nn2-c2ccc(S(N)(=O)=O)cc2)cc1 [CELECOXIB]	0.14 µM	1.01 µM	38.5 µM
NS(N)(=O)=O [SULFAMIDE]		5.96 µM	440000 µM
CCOc1ccc2nc(S(N)(=O)=O)sc2c1 [ETHOXZOLAMIDE]		0.74 µM	
NCc1ccc(S(N)(=O)=O)cc1 [MAFENIDE]	0.35 µM	8.5 µM	28.5 µM

The remaining lines, values ahead:

Ki (Carbonic anhydrase [1])	Ki (Carbonic anhydrase [2])	Ki (Carbonic anhydrase [3])	Structure (SMILES)
0.97 µM	0.42 µM	53.4 µM	Nc1ccc(S(N)(=O)=O)cc1F
0.14 µM	0.74 µM		Nc1ccc(S(N)(=O)=O)cc1Cl
0.28 µM	0.66 µM	98 µM	Nc1ccc(S(N)(=O)=O)cc1I
0.09 µM	3.36 µM	103000 µM	NS(=O)(=O)O [SULFAMATE]
		50 µM	Nc1cc(C(F)(F)F)c(S(N)(=O)=O)cc1S(N)(=O)=O [2,4-DISULFAMYLTRIFLUOROMETHYLANILINE]
0.25 µM	3.93 µM	57.8 µM	Nc1ccc(S(N)(=O)=O)cc1 [SULFANILAMIDE]
2.2 µM	0.22 µM	127 µM	NNc1ccc(S(N)(=O)=O)cc1
0.18 µM	6.36 µM	52.4 µM	Nc1ccc(S(=O)(=O)NCc2ccc(S(N)(=O)=O)cc2)cc1
	0.12 µM	23.5 µM	CC1(C)O[C@@H]2[C@@H](CO[C@@]3(COS(N)(=O)=O)OC(C)(C)O[C@@H]23)O1 [TOPIRAMATE]

Reference: ChEMBL document CHEMBL1138716, “Carbonic anhydrase inhibitors. Inhibition of the prokariotic beta and gamma-class enzymes from Archaea with sulfonamides” (Bioorg Med Chem Lett, 2004)
